Assay results from US11149036B2, “3-(1H-pyrazol-4-yl)pyridine allosteric modulators of the M4 muscarinic acetylcholine receptor” (Merck Sharp & Dohme Corp., priority 2017, dated 2021).

Target: T1, human M4 muscarinic acetylcholine receptor (Homo sapiens, UniProt P08173)
T1 construct: expressed in transfected cells; host or cells: CHO-K1
T1 sequence (P08173 1-479): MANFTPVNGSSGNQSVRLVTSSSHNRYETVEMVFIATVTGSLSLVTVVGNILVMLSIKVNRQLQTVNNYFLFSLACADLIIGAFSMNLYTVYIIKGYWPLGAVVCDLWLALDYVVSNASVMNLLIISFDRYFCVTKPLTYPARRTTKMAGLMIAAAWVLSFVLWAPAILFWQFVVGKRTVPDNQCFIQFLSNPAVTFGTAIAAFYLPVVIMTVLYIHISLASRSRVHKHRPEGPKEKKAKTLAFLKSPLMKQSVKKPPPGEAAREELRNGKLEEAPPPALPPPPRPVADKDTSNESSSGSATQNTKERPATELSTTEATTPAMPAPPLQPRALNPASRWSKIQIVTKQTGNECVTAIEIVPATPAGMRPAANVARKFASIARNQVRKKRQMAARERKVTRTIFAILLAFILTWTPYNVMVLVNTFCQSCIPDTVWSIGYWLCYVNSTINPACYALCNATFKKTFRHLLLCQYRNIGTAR
Experiment: human FLIPR-based M4 PAM assay (CHO-K1 cells with human M4 receptor and Gaqi5, calcium dye fluorescence)
Assay type: cell-based
Details: inflection point (IP) of dose response curve, acetylcholine added at 20% of maximum response, read-out: M4 FLIPPR Hu IP
Outline: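 CHO-K1 cells stably expressing human M4 with chimeric Gaqi5, calcium-dye loaded ~1 h at 37° C; compound added at increasing concentrations 4 min before acetylcholine at an EC20 concentration (sometimes a further EC70 addition).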

SMILES	EC50
Cn1cnc2cc(-c3ncc(Cl)cc3-c3cnn(CC4(C)CCCC4)c3)cnc21 [Example 109, 6-(5-chloro-3-(1-((1-methylcyclopentyl)methyl)-1H-pyrazol-4-yl)pyridin-2-yl)-3-methyl-3H-imidazo[4,5-b] pyridine]	69 nM
Cc1ccc(-c2cnn(CC3(F)CCCC3)c2)c(-c2ccc3c(c2)ncn3C)n1 [Example 16, 5-(3-(1-((1-fluorocyclopentyl)methyl)-1H-pyrazol-4-yl)-6-methylpyridin-2-yl)-1-methyl-1H-benzo[d]imidazole]	34 nM
C#Cc1ccc(-c2cnn(CC3CCCC3)c2)c(-c2ccc3cccnc3c2)n1 [Example 168, 7-(3-(1-(cyclopentylmethyl)-1H-pyrazol-4-yl)-6-ethynylpyridin-2-yl)quinoline]	24 nM
CC1(Cn2cc(-c3ccc(C#N)nc3-c3ccn4cc(C(F)F)nc4c3)cn2)CCCC1 [Example 76, 6-(2-(difluoromethyl)imidazo [1,2-a]pyridin-7-yl)-5-(1-((1-methylcyclopentyl)methyl)-1H-pyrazol-4-yl)picolinonitrile]	23 nM
CC1(Cn2cc(-c3ccc(C#N)nc3-c3ccn4cncc4c3)cn2)CCCC1 [Example 77, 6-(imidazo[1,5-a]pyridin-7-yl)-5-(1-((1-methylcyclopentyl)methyl)-1H-pyrazol-4-yl)picolinonitrile]	66 nM
Cc1ccc(-c2cnn(CC3(C)CCCC3)c2)c(-c2ccc3cc(F)cnc3c2)n1 [Example 32, 3-fluoro-7-(6-methyl-3-(1-((1-methylcyclopentyl)methyl)-1H-pyrazol-4-yl)pyridin-2-yl) quinoline]	11 nM
FC(F)(F)c1ccc(-c2cnn(CC3CCCC3)c2)c(-c2ccc3cccnc3c2)n1 [Example 104, 7-(3-(1-(cyclopentylmethyl)-1H-pyrazol-4-yl)-6-(trifluoromethyl)pyridin-2-yl)quinoline]	20 nM
Cn1nnc2cc(-c3nc(C#N)ccc3-c3cnn(CC4(F)CCCC4)c3)ccc21 [Example 56, 5-(1-((1-fluorocyclopentyl)methyl)-1H-pyrazol-4-yl)-6-(1-methyl-1H-benzo[1,2,3]triazol-5-yl)picolinonitrile]	41 nM
Cc1nc2cc(-c3ncc(F)cc3-c3cnn(CC4(F)CCCC4)c3)ccn2c1C [Example 97, 7-(5-fluoro-3-(1-((1-fluorocyclopentyl)methyl)-1H-pyrazol-4-yl)pyridin-2-yl)-2,3-dimethylimidazo[1,2-a] pyridine]	68 nM
COc1cc2ccc(-c3nc(F)ccc3-c3cnn(CC4(C)CCCC4)c3)cc2nn1 [Example 92, 7-(6-fluoro-3-(1-((1-methylcyclopentyl)methyl)-1H-pyrazol-4-yl)pyridin-2-yl)-3-methoxycinnoline]	4 nM
N#Cc1ccc(-c2cnn(CC3(F)CCCC3)c2)c(-c2ccn3c(Br)cnc3c2)n1 [Example 153, 6-(3-bromoimidazo[1,2-a]pyridin-7-yl)-5-(1-((1-fluorocyclopentyl)methyl)-1H-pyrazol-4-yl)picolinonitrile]	23 nM
Cc1nc2cc(-c3ncc(F)cc3-c3cnn(CC4C[C@@H](F)[C@H](F)C4)c3)ccc2n1C [Example 102]	232 nM
Cc1ccc(-c2cnn(CC3(F)CCCC3)c2)c(-c2ccc3cc(F)cnc3c2)n1 [Example 21, 3-fluoro-7-(3-(1-((1-fluorocyclopentyl)methyl)-1H-pyrazol-4-yl)-6-methylpyridin-2-yl)quinoline]	16 nM
N#Cc1ccc(-c2cnn(CC3(F)CCCC3)c2)c(-c2ccn3ccnc3c2)n1 [Example 50, 5-(1-((1-fluorocyclopentyl)methyl)-1H-pyrazol-4-yl)-6-(imidazo[1,2-a]pyridin-7-yl)picolinonitrile]	27 nM
COc1cc2ccc(-c3nc(C)ccc3-c3cnn(CC4CC5C(C4)C5(F)F)c3)cc2nn1 (stereo not drawn) [Example 37, 7-(3-(1-((6,6-difluorobicyclo[3.1.0]hexan-3-yl)methyl)-1H-pyrazol-4-yl)-6-methylpyridin-2-yl)-3-methoxycinnoline]	51 nM
Cc1ccc(-c2cnn(C[C@H]3CC[C@H](F)C3)c2)c(-c2ccc3cccnc3c2)n1 (racemic) [Example 30, 7-(3-(1-(((1S,3S and 1R,3R)-3-fluorocyclopentyl)methyl)-1H-pyrazol-4-yl)-6-methylpyridin-2-yl)quinoline]	32 nM
Cn1c(Cl)nc2cc(-c3nc(C#N)ccc3-c3cnn(CC4(C)CCCC4)c3)ccc21 [Example 154, 6-(2-chloro-1-methyl-1H-benzo[d]imidazol-5-yl)-5-(1-((1-methylcyclopentyl)methyl)-1H-pyrazol-4-yl)picolinonitrile]	44 nM

SMILES	EC50
COc1cnc2cc(-c3nc(C)ccc3-c3cnn(CC4(C)CCCC4)c3)ccc2c1 [Example 10, 3-methoxy-7-(6-methyl-3-(1-((1-methylcyclopentyl)methyl)-1H-pyrazol-4-yl)pyridin-2-yl)quinoline]	25 nM
Cc1ccc(-c2cnn(C[C@@H]3CC[C@@H](F)C3)c2)c(-c2ccc3cccnc3c2)n1 (single isomer, unassigned) [Example 132, 7-(3-(1-(((1R,3R) or (1S,3S)-3-fluorocyclopentyl)methyl)-1H-pyrazol-4-yl)-6-methylpyridin-2-yl)quinoline]	17 nM
CC1(Cn2cc(-c3ccc(C#N)nc3-c3ccc4cc(Cl)nnc4c3)cn2)CCCC1 [Example 127, 6-(3-chlorocinnolin-7-yl)-5-(1-((1-methylcyclopentyl)methyl)-1H-pyrazol-4-yl)picolinonitrile]	26 nM
Cc1nc2cc(-c3nc(C#N)c(C)cc3-c3cnn(CC4(F)CCCC4)c3)ccn2n1 [Example 141, 5-(1-((1-fluorocyclopentyl)methyl)-1H-pyrazol-4-yl)-3-methyl-6-(2-methyl-[1,2,4]triazolo[1,5-a]pyridin-7-yl)picolinonitrile]	50 nM
CC1(Cn2cc(-c3ccc(C#N)nc3-c3ccn4nccc4c3)cn2)CCCC1 [Example 79, 5-(1-((1-methylcyclopentyl)methyl)-1H-pyrazol-4-yl)-6-(pyrazolo[1,5-a]pyridin-5-yl) picolinonitrile]	80 nM
CC1(Cn2cc(-c3ccc(C#N)nc3-c3cnc4c(c3)C(=O)OC4)cn2)CCCC1 [Example 73, 5-(1-((1-methylcyclopentyl)methyl)-1H-pyrazol-4-yl)-6-(5-oxo-5,7-dihydrofuro [3,4-b]pyridin-3-yl) picolinonitrile]	41 nM
CC1(Cn2cc(-c3cc(F)c(C#N)nc3-c3ccn4ccnc4c3)cn2)CCCC1 [Example 87, 3-fluoro-6-(imidazo[1,2-a]pyridin-7-yl)-5-(1-((1-methylcyclopentyl)methyl)-1H-pyrazol-4-yl)picolinonitrile]	11 nM
Cn1ccc2ccc(-c3nc(C#N)ccc3-c3cnn(CC4CCCC4)c3)cc2c1=O [Example 39, 5-(1-(cyclopentylmethyl)-1H-pyrazol-4-yl)-6-(2-methyl-1-oxo-1,2-dihydroisoquinolin-7-yl)picolinonitrile]	111 nM
Cc1cn2ccc(-c3ncccc3-c3cnn(CC4C[C@H](F)[C@@H](F)C4)c3)cc2n1 [Example 4, 7-(3-(1-(((3S,4S)-3,4-difluorocyclopentyl)methyl)-1H-pyrazol-4-yl)pyridin-2-yl)-2-methylimidazo[1,2-a] pyridine]	63 nM
CN1C(=O)c2cc(-c3nc(C#N)ccc3-c3cnn(CC4(F)CCCC4)c3)ccc2C1(C)C [Example 45, 5-(1-((1-fluorocyclopentyl)methyl)-1H-pyrazol-4-yl)-6-(1,1,2-trimethyl-3-oxoisoindolin-5-yl)picolinonitrile]	64 nM
CC1(Cn2cc(-c3ccc(C#N)nc3-c3ccc4cc(N5CCC5)cnc4c3)cn2)CCCC1 [Example 161, 6-(3-(azetidin-1-yl)Quinolin-7-yl)-5-(1-((1-methylcyclopentyl)methyl)-1H-pyrazol-4-yl)picolinonitrile]	45 nM
Cc1nc2cc(-c3nc(C#N)ccc3-c3cnn(CC4(F)CCCC4)c3)ccn2n1 [Example 61, 5-(1-((1-fluorocyclopentyl)methyl)-1H-pyrazol-4-yl)-6-(2-methyl-[1,2,4]triazolo[1,5-a]pyridin-7-yl)picolinonitrile]	37 nM
CC1(Cn2cc(-c3c(C#N)ccnc3-c3ccc4cccnc4c3)cn2)CCCC1 [Example 103, 3-(1-((1-methylcyclopentyl)methyl)-1H-pyrazol-4-yl)-2-(quinolin-7-yl)isonicotinonitrile]	45 nM
O=C1c2cc(-c3ncc(F)cc3-c3cnn(CC4(F)CCCC4)c3)ccc2CN1C1CC1 [Example 101, 2-cyclopropyl-6-(5-fluoro-3-(1-((1-fluorocyclopentyl)methyl)-1H-pyrazol-4-yl)pyridin-2-yl) isoindolin-1-one]	69 nM
COc1cc2ccc(-c3nc(C)c(C#N)cc3-c3cnn(CC4(C)CCCC4)c3)cc2nn1 [Example 105, 6-(3-methoxycinnolin-7-yl)-2-methyl-5-(1-((1-methylcyclopentyl)methyl)-1H-pyrazol-4-yl)nicotinonitrile]	17 nM
Cc1ccc(-c2cnn(CC3(F)CCCC3)c2)c(-c2ccc3c(c2)C(=O)NC3)n1 [Example 17, 6-(3-(1-((1-fluorocyclopentyl)methyl)-1H-pyrazol-4-yl)-6-methylpyridin-2-yl)isoindolin-1-one]	26 nM
